Laboratory results taken from the NIST ThermoML archive (doi:10.1016/j.jct.2013.04.022).

Tests used:
[1] = mn = molality of the nth substance listed, in mol/kg; settings: 298.15 K, 85.9 kPa, Liquid; for mass density: Vibrating tube method; for viscosity: Capillary tube (Ostwald / Ubbelohde) method
[2] = 298.15 K, 85.9 kPa, Liquid; for viscosity: Capillary tube (Ostwald / Ubbelohde) method; for mass density: Vibrating tube method
[3] = refractive index (Na D-line) (dimensionless); settings: 298.15 K; 85.9 kPa; Liquid; Standard Abbe refractometry

CCCCn1cc[n+](C)c1.[Br-] [1-butyl-3-methylimidazolium bromide] + CC(=O)N(C)C
[1]
Settings	mass density [kg/m3]
m1 = 0.0527	944.36
m1 = 0.1475	946.97
m1 = 0.1994	950.03

CCCCn1cc[n+](C)c1.[Br-] [1-butyl-3-methylimidazolium bromide] + C[S+](C)[O-]
[1]
Settings	mass density [kg/m3]
m1 = 0.0751	1099.03
m1 = 0.0981	1099.68
m1 = 0.1923	1103.73

Oc1ccccc1C=Nc1ccccc1N=Cc1ccccc1O [2,2'-[1,2-phenylenebis(nitrilomethylidyne)]bis-phenol] + CC(=O)N(C)C
[1]
Settings	mass density [kg/m3]	viscosity [mPa·s]
m1 = 0.0106	937.33	0.954
m1 = 0.0323	938.87	0.975
m1 = 0.0497	940.11	0.992
m1 = 0.0704	941.6	1.012
m1 = 0.0899	942.99	1.031
m1 = 0.1092	944.36	1.049
m1 = 0.129	945.78	1.069
m1 = 0.1492	947.22	1.087
m1 = 0.174	949.06	–
m1 = 0.1742	–	1.011

Oc1ccccc1C=Nc1ccccc1N=Cc1ccccc1O [2,2'-[1,2-phenylenebis(nitrilomethylidyne)]bis-phenol] + C[S+](C)[O-]
[1]
Settings	mass density [kg/m3]	viscosity [mPa·s]
m1 = 0.0099	1095.61	1.998
m1 = 0.0307	1096.3	2.041
m1 = 0.0493	1096.92	2.073
m1 = 0.07	1097.62	2.109
m1 = 0.0911	1098.35	2.151
m1 = 0.1086	1098.95	2.208
m1 = 0.1311	1099.71	2.229
m1 = 0.1483	1100.31	2.289
m1 = 0.1717	1101.2	2.333

CC(=O)N(C)C [N,N-dimethylethanamide]
Settings	mass density [kg/m3]	refractive index	viscosity [mPa·s]
[2]	936.57	–	0.961
[3]	–	1.436	–

C[S+](C)[O-] [dimethyl sulfoxide]
Settings	mass density [kg/m3]	refractive index	viscosity [mPa·s]
[2]	1095.29	–	1.867
[3]	–	1.4762	–
